According to patent US20250196055A1, “PROCESS FOR CAPTURING CO2 FROM A MOBILE SOURCE USING AN AMINO ACID SOLVENT” (SAUDI ARABIAN OIL COMPANY, priority 2021, published 2025):

Experiments:
[1] = Solubility testing in gas bubbler/sparger with continuous 9 mol % CO2 in N2; details: 9 mol % CO2, ambient conditions
[2] = Preliminary solubility testing of CO2-loaded amino/amino-sulfonic acid solutions (precipitation temperature); type: physicochemical; details: for solubility of CO2-loaded solution (in words): CO2 loaded 0.35-0.45 mol CO2/mol alk., lowest limit of apparatus −10° C.; for Precipitation Temperature: ambient pressure, test range −10° C. to 40° C.
Protocol: Preliminary solubility testing was carried out with various amino and amino-sulfonic acids and blends thereof to determine the propensity for solids precipitation. These blends were loaded with CO2 under representative process conditions: a CO2 loading from 0.35 to 0.45 mol CO2/mol alkalinity at ambient pressure and a temperature from −10° C. to 40° C. CO2 loading was achieved by addition of potassium bicarbonate instead of some potassium hydroxide as the neutralizing agent. The loading (in mol CO2 per mol alkalinity) was determined from the following equation: […]

[3] = Continuous test plant: membrane contactor CO2 absorption from exhaust and solvent regeneration in stripper; details: for solids at ambient conditions (in words): atmospheric pressure and room temperature

CC(C)(N)C(=O)O [1 m AlBA, Amino isobutyric acid]
precipitation when 9 mol % CO2 continuously injected (in words) [1]: did not precipitate

NCCCS(=O)(=O)O [3 m HTAU, homotaurine]
precipitation when 9 mol % CO2 continuously injected (in words) [1]: did not precipitate

CN[C@@H](C)C(=O)O [3 m NMA, n-methyl-alanine]
precipitation when 9 mol % CO2 continuously injected (in words) [1]: did not precipitate

NCCS(=O)(=O)O [3 m TAU, taurine]
solubility of CO2-loaded solution (in words) [2]: soluble at process temperatures from 40 °C to 120° C., but potentially not soluble at room temperature
Solid Observed ([3]; 210 kPa stripper pressure, 120° C. stripper temperature, 3.75 kg/min liquid, 9 mol % CO2, 25 SCFM): YES
solids at ambient conditions (in words) ([3]; listed as 3 m potassium taurinate): solids are formed

NCCS(=O)(=O)O [5 m TAU, taurine]
solids at ambient conditions (in words) ([3]; listed as 5 m taurine): solids are observed

NCCC(=O)O [5 m b-ALA, Beta-alanine]
precipitation when 9 mol % CO2 continuously injected (in words) [1]: did not precipitate

NCCCS(=O)(=O)O [5 m homotaurine, homotaurine]
solubility of CO2-loaded solution (in words) [2]: highly soluble with no precipitation
Precipitation Temperature ([2]; Loading 0.35 mol CO2/mol alk.): <−10 °C
Precipitation Temperature ([2]; Loading 0.40 mol CO2/mol alk.): <−10 °C
Precipitation Temperature ([2]; Loading 0.45 mol CO2/mol alk.): <−10 °C
